{"source": "patent US20160160189A1", "about": "“Truncated Constructs of RIPK3 and Related Uses” (ST. JUDE CHILDREN'S RESEARCH HOSPITAL, priority 2013, published 2016)", "system": "NIH-3T3 cells stably expressing RIPK3-1xFv", "assay": "TNF-induced necroptosis, IncuCyte imaging", "assay_type": "cell-based, murine", "conditions": "recombinant TNF with zVAD; Nec1 30 μM, TNFR1-Fc 200 ng/ml", "description": "Expression of RIPK3-1xFv sensitized these cells to necroptosis induced by the combination of TNF and a caspase inhibitor (zVAD) in a manner analogous to that observed in Jax cells, a murine fibroblast line that expresses endogenous RIPK3. See, FIG. 13C. […]\nResulting images were analyzed using the software package supplied with the IncuCyte imager, which allows precise analysis of the number of Sytox Green or Yoyo-3 positive cells present in each image. For each experiment, a minimum of three separate wells were treated with each experimental condition, and a minimum of 4 image fields were assessed per well. Percent cell death was calculated by treating a minimum of three distinct wells in each experiment with 100 nM of the cell permeable fluorescent dye Syto Green (S7559), which allows quantification of the total number of cells present in each field. […]", "data": [{"smiles": "CN1C(=O)C(Cc2c[nH]c3ccccc23)NC1=S", "note": "(stereo not shown) [necrostatin-1, Necrostatin-1]", "values": [{"measurement": "effect on TNF-induced necroptosis", "value": "blocks"}]}]}
